What was measured:
Assay type in all cases: cell-based, human
Yap1 mRNA [1] = experiment: Yap1 mRNA in NCI H747 cells, RNA analysis (Example 31); conditions: free uptake, approximately 48 hours
Protocol: Modified oligonucleotides described in the studies above were tested at various doses in colorectal adenocarcinoma cell line NCI H747. A control oligonucleotide 792169 was also tested.
Cultured NCI H747 cells at a density of 10,000 cells per well were treated using free uptake with modified oligonucleotides diluted to concentrations described in the tables below. After approximately 48 hours, Yap1 mRNA levels were measured as previously described using the Human Yap1 primer-probe set RTS4814. Yap1 mRNA levels were normalized to actin-beta content, as measured by primer probe set RTS5002. Results are presented in the tables below as percent control of the amount of Yap1 mRNA relative to untreated control cells (% UTC).

Yap1 mRNA [2] = experiment: Yap1 mRNA in SNU-899 cells, RNA analysis (Example 43); conditions: free uptake, approximately 48 hours
Protocol: Modified oligonucleotides described in the studies above were tested at various doses in laryngeal squamous cell carcinoma cell line SNU-899. A control oligonucleotide 792169, described herein above, was also tested.
Cultured SNU-899 cells at a density of 5000 cells per well were treated using free uptake with modified oligonucleotides diluted to concentrations described in the tables below. After approximately 48 hours, Yap1 mRNA levels were measured as previously described using the Human Yap1 primer-probe set RTS4814. Yap1 mRNA levels were normalized to actin-beta content, as measured by primer probe set RTS5002. Results are presented in the tables below as percent control of the amount of Yap1 mRNA relative to untreated control cells (% UTC).

BICR56 cells = experiment: Cell proliferation assay in BICR56 cells, CellTiter-Glo (Example 33); conditions: free uptake, approximately 144 hours
Protocol: Modified oligonucleotides described in the studies above were tested at various doses in squamous cell carcinoma adherent keratinocyte cell line BICR56. A control oligonucleotide 792169 was also tested.
Cultured BICR56 cells at a density of 1000 cells/well were treated using free uptake with modified oligonucleotides diluted to concentrations described in the tables below. After approximately 144 hours, cell proliferation was measured using the luminescent cell viability CellTiter-Glo® 2.0 Assay (Promega). Results are presented in the tables below as percent control of the amount of luminescence in samples treated with modified oligonucleotides relative to untreated control cells (% UTC).

Detroit-562 cells = experiment: Cell proliferation assay in Detroit-562 cells, CellTiter-Glo (Example 38); conditions: free uptake, approximately 144 hours
Protocol: Modified oligonucleotides described in the studies above were tested at various doses in pharynx carcinoma cell line Detroit-562. A control oligonucleotide 792169, described herein above, was also tested.
Cultured Detroit-562 cells at a density of 1000 cells/well were treated using free uptake with modified oligonucleotides diluted to concentrations described in the tables below. After approximately 144 hours, cell proliferation was measured using the luminescent cell viability CellTiter-Glo® 2.0 Assay (Promega). Results are presented in the tables below as percent control of the amount of luminescence in samples treated with modified oligonucleotides relative to untreated control cells (% UTC).

Yap1 mRNA [3] = experiment: Yap1 mRNA in UPCI:SCC090 cells, RNA analysis (Example 47); conditions: free uptake, approximately 48 hours
Protocol: Modified oligonucleotides described in the studies above were tested at various doses in tongue squamous cell carcinoma cell line UPCI:SCC090. A control oligonucleotide 792169, described herein above, was also tested.
Cultured UPCI:SCC090 cells at a density of 5000 cells per well were treated using free uptake with modified oligonucleotides diluted to concentrations described in the tables below. After approximately 48 hours, Yap1 mRNA levels were measured as previously described using the Human Yap1 primer-probe set RTS4814. Yap1 mRNA levels were normalized to actin-beta content, as measured by primer probe set RTS5002. Results are presented in the tables below as percent control of the amount of Yap1 mRNA relative to untreated control cells (% UTC).

CAL33 cells = experiment: Cell proliferation assay in CAL33 cells, CellTiter-Glo (Example 36); conditions: free uptake, approximately 144 hours
Protocol: Modified oligonucleotides described in the studies above were tested at various doses in tongue squamous cell carcinoma line CAL33. A control oligonucleotide 792169, described herein above, was also tested.
Cultured CAL33 cells at a density of 1000 cells/well were treated using free uptake with modified oligonucleotides diluted to concentrations described in the tables below. After approximately 144 hours, cell proliferation was measured using the luminescent cell viability CellTiter-Glo® 2.0 Assay (Promega). Results are presented in the tables below as percent control of the amount of luminescence in samples treated with modified oligonucleotides relative to untreated control cells (% UTC).

Yap1 mRNA [4] = experiment: Yap1 mRNA in SNU-1066 cells, RNA analysis (Example 44); conditions: free uptake, approximately 48 hours
Protocol: Modified oligonucleotides described in the studies above were tested at various doses in laryngeal squamous cell carcinoma line SNU-1066. A control oligonucleotide 792169, described herein above, was also tested.
Cultured SNU-1066 cells at a density of 5000 cells per well were treated using free uptake with modified oligonucleotides diluted to concentrations described in the tables below. After approximately 48 hours, Yap1 mRNA levels were measured as previously described using the Human Yap1 primer-probe set RTS4814. Yap1 mRNA levels were normalized to actin-beta content, as measured by primer probe set RTS5002. Results are presented in the tables below as percent control of the amount of Yap1 mRNA relative to untreated control cells (% UTC).

Yap1 mRNA [5] = experiment: Yap1 mRNA in CAL27 cells, RNA analysis (Example 37); conditions: free uptake, approximately 48 hours
Protocol: Modified oligonucleotides described in the studies above were tested at various doses in tongue squamous cell carcinoma line CAL27. A control oligonucleotide 792169, described herein above, was also tested.
Cultured CAL27 cells at a density of 5000 cells per well were treated using free uptake with modified oligonucleotides diluted to concentrations described in the tables below. After approximately 48 hours, Yap1 mRNA levels were measured as previously described using the Human Yap1 primer-probe set RTS4814. Yap1 mRNA levels were normalized to actin-beta content, as measured by primer probe set RTS5002. Results are presented in the tables below as percent control of the amount of Yap1 mRNA relative to untreated control cells (% UTC).

For “1198440 (AAGTGTATGTCAGAAG; cEt, 2'-MOE, 5-methylcytosine, phosphorothioate modifications, further chemistry not given here) [compound 1198440]”, which “human Yap1 mRNA expression” value (Yap1 mRNA [1]; 0.04 μM) is on record?
The value was 73 % UTC.

What about the “human Yap1 mRNA expression” value (Yap1 mRNA [1]; 0.2 μM) of the same substance?
Its value is 53 % UTC.

What about the “human Yap1 mRNA expression” value (Yap1 mRNA [1]; 1 μM) of the same substance?
The value was 21 % UTC.

And the “human Yap1 mRNA expression” value (Yap1 mRNA [1]; 5 μM)?
Its value is 9 % UTC.

What about the “human Yap1 mRNA expression” value (Yap1 mRNA [2]; 0.04 μM) of the same substance?
Its value is 35 % UTC.

What about the “human Yap1 mRNA expression” value (Yap1 mRNA [2]; 0.2 μM) of the same substance?
Its value is 12 % UTC.

What about the “human Yap1 mRNA expression” value (Yap1 mRNA [2]; 1 μM) of the same substance?
Its value is 3 % UTC.

What about the “human Yap1 mRNA expression” value (Yap1 mRNA [2]; 5 μM) of the same substance?
Its value is 2 % UTC.

And the “Antiproliferative effect (cell proliferation, luminescence)” value (shortened to “Antiproliferative effect”) (BICR56 cells; 0.04 μM)?
The value was 28 % UTC.

And the “Antiproliferative effect” value (BICR56 cells; 0.2 μM)?
The value was 10 % UTC.

And the “Antiproliferative effect” value (BICR56 cells; 1 μM)?
The value was 6 % UTC.

What about the “Antiproliferative effect” value (BICR56 cells; 5 μM) of the same substance?
Its value is 4 % UTC.

What about the “Antiproliferative effect” value (Detroit-562 cells; 0.04 μM) of the same substance?
Its value is 84 % UTC.

And the “Antiproliferative effect” value (Detroit-562 cells; 0.2 μM)?
The value was 67 % UTC.

What about the “Antiproliferative effect” value (Detroit-562 cells; 1 μM) of the same substance?
Its value is 59 % UTC.

What about the “Antiproliferative effect” value (Detroit-562 cells; 5 μM) of the same substance?
Its value is 45 % UTC.

What about the “human Yap1 mRNA expression” value (Yap1 mRNA [3]; 0.04 μM) of the same substance?
The value was 60 % UTC.

And the “human Yap1 mRNA expression” value (Yap1 mRNA [3]; 0.2 μM)?
Its value is 26 % UTC.

And the “human Yap1 mRNA expression” value (Yap1 mRNA [3]; 1 μM)?
Its value is 10 % UTC.

What about the “human Yap1 mRNA expression” value (Yap1 mRNA [3]; 5 μM) of the same substance?
The value was 5 % UTC.

What about the “Antiproliferative effect” value (CAL33 cells; 0.04 μM) of the same substance?
Its value is 84 % UTC.

What about the “Antiproliferative effect” value (CAL33 cells; 0.2 μM) of the same substance?
The value was 67 % UTC.

And the “Antiproliferative effect” value (CAL33 cells; 1 μM)?
Its value is 58 % UTC.

And the “Antiproliferative effect” value (CAL33 cells; 5 μM)?
Its value is 44 % UTC.

What about the “human Yap1 mRNA expression” value (Yap1 mRNA [4]; 0.04 μM) of the same substance?
Its value is 70 % UTC.

What about the “human Yap1 mRNA expression” value (Yap1 mRNA [4]; 0.2 μM) of the same substance?
Its value is 28 % UTC.

And the “human Yap1 mRNA expression” value (Yap1 mRNA [4]; 1 μM)?
Its value is 7 % UTC.

And the “human Yap1 mRNA expression” value (Yap1 mRNA [4]; 5 μM)?
The value was 2 % UTC.

And the “human Yap1 mRNA expression” value (Yap1 mRNA [5]; 0.08 μM)?
The value was 23 % UTC.

And the “human Yap1 mRNA expression” value (Yap1 mRNA [5]; 0.4 μM)?
The value was 6 % UTC.

What about the “human Yap1 mRNA expression” value (Yap1 mRNA [5]; 2 μM) of the same substance?
Its value is 4 % UTC.

And the “human Yap1 mRNA expression” value (Yap1 mRNA [5]; 10 μM)?
The value was 4 % UTC.

From patent US11214803B2, “Modulators of YAP1 expression” (Ionis Pharmaceuticals, Inc., priority 2019, dated 2022)
